Assay results taken from ChEMBL document CHEMBL1142906, “Structure-activity relationships of novel piperazines as antagonists for the melanocortin-4 receptor” (Bioorg Med Chem, 2007).

Key:
[1] = molecular target: Norepinephrine transporter (Rattus norvegicus, UniProt Q9WTR4); assay: Displacement of [3H]nisoxetine from NET in rat cortical membranes; type: cell membranes, Membrane
Histamine H1 receptor = Histamine H1 receptor (Rattus norvegicus, UniProt P31390); assay: Displacement of [3H]pyrilamine from histamine H1 receptor in rat brain membranes; type: cell membranes
Melanocortin receptor 4 = Melanocortin receptor 4 (Homo sapiens, UniProt P32245); assay: Displacement of [125I]Nle4-D-Phe7-alpha-MSH from human MC4 receptor expressed in COS1 cells; type: cell-based, COS-1
[2] = molecular target: Sodium-dependent serotonin transporter (Rattus norvegicus, UniProt P31652); assay: Displacement of [3H][…] from SET in rat cortical membranes; type: cell membranes, Membrane
[3] = molecular target: T1, Adrenergic receptor alpha-1 (Rattus norvegicus, UniProt P15823+P23944+P43140); assay: Displacement of [3H]prazosin from adrenergic alpha-1 receptor in rat cortical membranes; type: cell membranes, Membrane
T1 sequence (P15823 whole entry): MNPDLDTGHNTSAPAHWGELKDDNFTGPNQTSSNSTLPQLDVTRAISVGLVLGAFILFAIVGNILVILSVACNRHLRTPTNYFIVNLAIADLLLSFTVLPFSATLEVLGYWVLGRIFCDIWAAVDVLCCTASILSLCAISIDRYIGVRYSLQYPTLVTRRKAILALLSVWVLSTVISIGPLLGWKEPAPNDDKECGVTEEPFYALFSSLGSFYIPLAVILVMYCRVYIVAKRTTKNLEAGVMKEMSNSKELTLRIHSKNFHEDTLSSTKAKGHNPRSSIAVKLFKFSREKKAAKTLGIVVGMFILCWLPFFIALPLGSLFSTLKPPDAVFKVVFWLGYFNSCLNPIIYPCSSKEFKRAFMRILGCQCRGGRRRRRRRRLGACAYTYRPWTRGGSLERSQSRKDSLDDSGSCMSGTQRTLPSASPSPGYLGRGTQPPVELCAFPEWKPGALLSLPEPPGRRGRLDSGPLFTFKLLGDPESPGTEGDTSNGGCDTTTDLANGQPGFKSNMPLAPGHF
T1 sequence (P23944 whole entry): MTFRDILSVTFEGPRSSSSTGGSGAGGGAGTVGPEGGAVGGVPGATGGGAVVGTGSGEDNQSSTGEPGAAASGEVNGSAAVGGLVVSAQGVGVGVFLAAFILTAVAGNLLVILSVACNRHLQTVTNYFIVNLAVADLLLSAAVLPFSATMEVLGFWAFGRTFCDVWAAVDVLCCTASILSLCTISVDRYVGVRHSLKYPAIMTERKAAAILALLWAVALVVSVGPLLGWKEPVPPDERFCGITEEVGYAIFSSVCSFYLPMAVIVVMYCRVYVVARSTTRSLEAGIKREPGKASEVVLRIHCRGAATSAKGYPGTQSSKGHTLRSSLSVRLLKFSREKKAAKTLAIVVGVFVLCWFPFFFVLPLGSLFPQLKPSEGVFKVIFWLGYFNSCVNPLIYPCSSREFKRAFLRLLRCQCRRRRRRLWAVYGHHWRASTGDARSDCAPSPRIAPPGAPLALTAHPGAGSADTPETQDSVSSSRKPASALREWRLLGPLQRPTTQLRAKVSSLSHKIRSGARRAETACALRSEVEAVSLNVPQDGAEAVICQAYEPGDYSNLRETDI
T1 sequence (P43140 whole entry): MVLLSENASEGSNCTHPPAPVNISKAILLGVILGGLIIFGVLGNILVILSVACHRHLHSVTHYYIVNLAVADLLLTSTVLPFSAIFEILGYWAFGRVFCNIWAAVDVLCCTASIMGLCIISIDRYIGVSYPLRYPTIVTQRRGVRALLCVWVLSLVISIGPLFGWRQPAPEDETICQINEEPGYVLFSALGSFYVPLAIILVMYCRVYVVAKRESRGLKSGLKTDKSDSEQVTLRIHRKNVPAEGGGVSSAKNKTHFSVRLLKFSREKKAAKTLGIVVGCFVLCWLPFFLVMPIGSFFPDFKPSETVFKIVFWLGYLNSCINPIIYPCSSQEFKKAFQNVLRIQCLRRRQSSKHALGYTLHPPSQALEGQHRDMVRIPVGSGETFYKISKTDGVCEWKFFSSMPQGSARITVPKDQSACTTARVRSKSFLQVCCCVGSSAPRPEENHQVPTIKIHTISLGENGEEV

[4] = molecular target: Delta-type opioid receptor (Rattus norvegicus, UniProt P33533); assay: Displacement of [3H]DPDPE from delta opiate receptor in rat brain membranes; type: cell membranes
D(2) dopamine receptor = D(2) dopamine receptor (Rattus norvegicus, UniProt P61169); assay: Displacement of [3H]raclopride from dopamine D2 receptor in rat striatal membranes; type: cell membranes, Membrane
Mu-type opioid receptor = Mu-type opioid receptor (Rattus norvegicus, UniProt P33535); assay: Displacement of [3H]DAMGO from mu opiate receptor in rat brain membranes; type: cell membranes
Sequence of Mu-type opioid receptor (P33535 whole entry): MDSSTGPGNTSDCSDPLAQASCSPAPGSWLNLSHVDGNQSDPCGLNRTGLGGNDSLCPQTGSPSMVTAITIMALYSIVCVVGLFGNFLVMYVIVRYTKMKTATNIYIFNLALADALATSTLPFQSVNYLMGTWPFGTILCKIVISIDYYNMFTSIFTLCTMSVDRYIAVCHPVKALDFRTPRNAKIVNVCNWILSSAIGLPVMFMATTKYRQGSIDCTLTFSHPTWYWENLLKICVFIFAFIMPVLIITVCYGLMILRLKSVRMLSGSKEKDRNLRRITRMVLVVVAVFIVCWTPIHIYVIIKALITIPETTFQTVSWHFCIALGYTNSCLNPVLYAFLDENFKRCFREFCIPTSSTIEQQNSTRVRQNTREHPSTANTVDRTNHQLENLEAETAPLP

Sequence of Melanocortin receptor 4 (P32245 whole entry): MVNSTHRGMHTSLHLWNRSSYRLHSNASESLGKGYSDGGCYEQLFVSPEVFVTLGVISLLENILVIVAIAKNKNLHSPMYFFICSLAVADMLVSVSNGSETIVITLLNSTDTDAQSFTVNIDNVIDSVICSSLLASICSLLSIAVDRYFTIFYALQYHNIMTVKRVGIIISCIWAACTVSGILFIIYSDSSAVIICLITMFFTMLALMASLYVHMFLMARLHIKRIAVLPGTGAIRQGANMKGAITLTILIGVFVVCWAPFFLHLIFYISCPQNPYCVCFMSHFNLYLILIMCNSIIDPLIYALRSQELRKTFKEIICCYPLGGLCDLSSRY
Sequence of Delta-type opioid receptor (P33533 whole entry): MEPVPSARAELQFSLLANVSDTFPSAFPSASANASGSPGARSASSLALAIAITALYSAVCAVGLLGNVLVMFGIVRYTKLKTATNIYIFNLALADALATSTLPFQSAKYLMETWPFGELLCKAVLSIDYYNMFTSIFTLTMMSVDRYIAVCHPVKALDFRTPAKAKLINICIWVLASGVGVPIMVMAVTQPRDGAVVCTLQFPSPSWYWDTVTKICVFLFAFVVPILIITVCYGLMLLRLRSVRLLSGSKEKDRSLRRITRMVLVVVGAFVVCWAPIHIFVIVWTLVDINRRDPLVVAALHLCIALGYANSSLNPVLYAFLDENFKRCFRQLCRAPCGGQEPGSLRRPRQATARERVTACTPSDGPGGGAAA
Sequence of Sodium-dependent serotonin transporter (P31652 whole entry): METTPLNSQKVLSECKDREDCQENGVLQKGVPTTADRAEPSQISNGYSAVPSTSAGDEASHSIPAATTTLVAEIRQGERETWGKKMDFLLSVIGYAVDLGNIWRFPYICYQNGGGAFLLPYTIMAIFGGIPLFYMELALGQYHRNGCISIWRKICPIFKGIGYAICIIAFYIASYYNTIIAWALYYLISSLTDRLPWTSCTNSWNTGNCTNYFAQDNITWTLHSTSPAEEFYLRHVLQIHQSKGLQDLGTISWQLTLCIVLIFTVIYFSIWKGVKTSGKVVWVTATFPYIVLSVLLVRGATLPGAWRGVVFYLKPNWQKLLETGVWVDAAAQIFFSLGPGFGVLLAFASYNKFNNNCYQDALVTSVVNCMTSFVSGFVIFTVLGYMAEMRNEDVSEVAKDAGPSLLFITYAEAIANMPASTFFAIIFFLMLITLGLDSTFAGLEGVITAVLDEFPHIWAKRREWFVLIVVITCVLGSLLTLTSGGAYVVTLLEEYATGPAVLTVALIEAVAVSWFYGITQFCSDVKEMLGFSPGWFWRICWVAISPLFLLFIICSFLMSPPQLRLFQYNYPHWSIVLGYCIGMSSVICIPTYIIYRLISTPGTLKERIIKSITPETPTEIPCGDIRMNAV
Sequence of D(2) dopamine receptor (P61169 whole entry): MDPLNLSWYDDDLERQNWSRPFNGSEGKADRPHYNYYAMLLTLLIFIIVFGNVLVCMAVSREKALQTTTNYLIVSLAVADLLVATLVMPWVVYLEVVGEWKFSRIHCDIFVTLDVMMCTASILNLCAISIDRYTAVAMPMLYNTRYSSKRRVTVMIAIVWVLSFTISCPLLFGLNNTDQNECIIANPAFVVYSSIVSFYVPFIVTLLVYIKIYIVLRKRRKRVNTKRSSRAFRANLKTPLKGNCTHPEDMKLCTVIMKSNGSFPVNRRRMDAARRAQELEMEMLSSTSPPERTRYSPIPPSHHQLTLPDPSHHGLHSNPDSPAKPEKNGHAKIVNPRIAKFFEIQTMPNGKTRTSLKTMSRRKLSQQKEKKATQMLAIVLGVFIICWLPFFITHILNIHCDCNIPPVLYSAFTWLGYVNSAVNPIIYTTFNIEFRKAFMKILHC
Sequence of Histamine H1 receptor (P31390 whole entry): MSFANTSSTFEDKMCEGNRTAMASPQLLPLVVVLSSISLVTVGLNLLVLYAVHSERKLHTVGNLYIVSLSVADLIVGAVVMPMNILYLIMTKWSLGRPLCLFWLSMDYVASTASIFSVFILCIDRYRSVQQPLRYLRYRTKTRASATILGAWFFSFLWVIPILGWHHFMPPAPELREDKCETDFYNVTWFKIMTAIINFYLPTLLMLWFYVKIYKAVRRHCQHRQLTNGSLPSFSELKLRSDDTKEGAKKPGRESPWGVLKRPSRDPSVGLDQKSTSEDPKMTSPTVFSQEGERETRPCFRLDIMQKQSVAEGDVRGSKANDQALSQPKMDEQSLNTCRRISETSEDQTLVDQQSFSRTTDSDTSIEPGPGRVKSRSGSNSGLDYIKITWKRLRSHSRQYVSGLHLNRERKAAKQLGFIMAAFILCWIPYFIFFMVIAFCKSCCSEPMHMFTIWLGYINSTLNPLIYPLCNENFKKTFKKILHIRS
Sequence of Norepinephrine transporter (Q9WTR4 whole entry): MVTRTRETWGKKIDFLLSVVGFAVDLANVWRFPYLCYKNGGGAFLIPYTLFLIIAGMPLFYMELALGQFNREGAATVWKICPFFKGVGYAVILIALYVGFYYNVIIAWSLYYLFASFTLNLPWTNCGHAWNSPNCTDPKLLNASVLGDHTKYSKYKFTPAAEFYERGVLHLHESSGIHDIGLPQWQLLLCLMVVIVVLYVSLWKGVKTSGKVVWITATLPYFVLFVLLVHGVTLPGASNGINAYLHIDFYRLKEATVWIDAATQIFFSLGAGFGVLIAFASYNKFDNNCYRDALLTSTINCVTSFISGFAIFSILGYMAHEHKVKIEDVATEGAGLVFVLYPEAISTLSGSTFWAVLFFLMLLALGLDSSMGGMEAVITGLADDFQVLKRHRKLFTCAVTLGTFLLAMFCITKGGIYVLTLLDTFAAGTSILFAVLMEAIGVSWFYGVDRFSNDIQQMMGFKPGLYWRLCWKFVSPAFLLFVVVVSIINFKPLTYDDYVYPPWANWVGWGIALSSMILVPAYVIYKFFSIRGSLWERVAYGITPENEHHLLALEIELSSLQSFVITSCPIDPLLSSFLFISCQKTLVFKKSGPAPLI

| Structure (SMILES) | IC50 [1] [nM] | IC50 (Histamine H1 receptor) [nM] | IC50 (Melanocortin receptor 4) [nM] | IC50 [2] [nM] | IC50 [3] [nM] | IC50 [4] [nM] | IC50 (D(2) dopamine receptor) [nM] | IC50 (Mu-type opioid receptor) [nM] |
| --- | --- | --- | --- | --- | --- | --- | --- | --- |
| CC(C)N1CCN(C(CN2CCN(CCCc3ccccc3-c3ccccc3)CC2)c2ccc(F)cc2)CC1 (racemic) | 671 | > 1000 | 11.2 | 3130 | > 1000 | > 10000 | 645 | > 10000 |
| CC(C)N1CCN(C(CN2CCN(CCCc3cccc(F)c3-c3ccccc3)CC2)c2ccc(F)cc2)CC1 (racemic) | 2830 | > 1000 | 23 | 3400 | > 1000 | > 10000 | > 1000 | > 10000 |
| CC(C)N1CCN(C(CN2CCN(CCCc3ccc(F)cc3-c3ccccc3)CC2)c2ccc(F)cc2)CC1 (racemic) | 1850 | > 1000 | 33 | 1370 | > 1000 | > 10000 | > 1000 | > 10000 |
| CC(C)N1CCN(C(CN2CCN(CCCc3c(Cl)cccc3-c3ccccc3)CC2)c2ccc(F)cc2)CC1 (racemic) | 1770 | > 1000 | 27.1 | 1290 | > 1000 | > 10000 | > 1000 | > 10000 |
| Cc1cccc(-c2ccccc2)c1CCCN1CCN(CC(c2ccc(F)cc2)N2CCN(C(C)C)CC2)CC1 (racemic) | 2400 | > 1000 | 24.3 | 4960 | > 1000 | > 10000 | > 1000 | > 10000 |

Now those with a lower IC50 [1], led by results:

| IC50 [1] [nM] | IC50 (Histamine H1 receptor) [nM] | IC50 (Melanocortin receptor 4) [nM] | IC50 [2] [nM] | IC50 [3] [nM] | IC50 [4] [nM] | IC50 (D(2) dopamine receptor) [nM] | IC50 (Mu-type opioid receptor) [nM] | Structure (SMILES) |
| --- | --- | --- | --- | --- | --- | --- | --- | --- |
| 369 | > 1000 | 27.1 | 1170 | > 1000 | > 10000 | 721 | > 10000 | CC(C)N1CCN(C(CN2CCN(CCCc3cc(F)ccc3-c3ccccc3)CC2)c2ccc(F)cc2)CC1 (racemic) |
| 206 | > 1000 | 11.7 | 1460 | > 1000 | > 10000 | > 1000 | > 10000 | CC(C)N1CCN(C(CN2CCN(CCCc3c(F)cccc3-c3ccccc3)CC2)c2ccc(F)cc2)CC1 (racemic) |
| 226 | > 1000 | 23.6 | 2110 | > 1000 | > 10000 | > 1000 | > 10000 | CC(C)N1CCN(C(CN2CCN(CCCc3ccccc3-c3cccc(F)c3)CC2)c2ccc(F)cc2)CC1 (racemic) |
| 290 | > 1000 | 10.5 | 1340 | > 1000 | > 10000 | 721 | > 10000 | CC(C)N1CCN(C(CN2CCN(CCCc3ccccc3-c3ccc(F)cc3)CC2)c2ccc(F)cc2)CC1 (racemic) |
